Assay results reported in ChEMBL document CHEMBL1908284, “Rational use of in vitro P-glycoprotein assays in drug discovery” (J Pharmacol Exp Ther, 2001).

Tests used:
[1] = molecular target: T1, ATP-dependent translocase ABCB1 (Homo sapiens, UniProt P08183); details: spodoptera frugiperda, sf9, 20 µM;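 on Ratio ATPase activity: Compound-stimulated ATPase activity measured in membrane preparations of MDR1-expressing Sf9 cells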
Description: Drug-stimulated Pgp ATPase activity ratio determined in MDR1-Sf9 cell membranes with test compound at a concentration of 20uM

[2] = molecular target: T2, ATP-dependent translocase ABCB1 (MDR1) (Homo sapiens, UniProt P08183); assay: in vitro; details: dog
T2 sequence (P08183 whole entry): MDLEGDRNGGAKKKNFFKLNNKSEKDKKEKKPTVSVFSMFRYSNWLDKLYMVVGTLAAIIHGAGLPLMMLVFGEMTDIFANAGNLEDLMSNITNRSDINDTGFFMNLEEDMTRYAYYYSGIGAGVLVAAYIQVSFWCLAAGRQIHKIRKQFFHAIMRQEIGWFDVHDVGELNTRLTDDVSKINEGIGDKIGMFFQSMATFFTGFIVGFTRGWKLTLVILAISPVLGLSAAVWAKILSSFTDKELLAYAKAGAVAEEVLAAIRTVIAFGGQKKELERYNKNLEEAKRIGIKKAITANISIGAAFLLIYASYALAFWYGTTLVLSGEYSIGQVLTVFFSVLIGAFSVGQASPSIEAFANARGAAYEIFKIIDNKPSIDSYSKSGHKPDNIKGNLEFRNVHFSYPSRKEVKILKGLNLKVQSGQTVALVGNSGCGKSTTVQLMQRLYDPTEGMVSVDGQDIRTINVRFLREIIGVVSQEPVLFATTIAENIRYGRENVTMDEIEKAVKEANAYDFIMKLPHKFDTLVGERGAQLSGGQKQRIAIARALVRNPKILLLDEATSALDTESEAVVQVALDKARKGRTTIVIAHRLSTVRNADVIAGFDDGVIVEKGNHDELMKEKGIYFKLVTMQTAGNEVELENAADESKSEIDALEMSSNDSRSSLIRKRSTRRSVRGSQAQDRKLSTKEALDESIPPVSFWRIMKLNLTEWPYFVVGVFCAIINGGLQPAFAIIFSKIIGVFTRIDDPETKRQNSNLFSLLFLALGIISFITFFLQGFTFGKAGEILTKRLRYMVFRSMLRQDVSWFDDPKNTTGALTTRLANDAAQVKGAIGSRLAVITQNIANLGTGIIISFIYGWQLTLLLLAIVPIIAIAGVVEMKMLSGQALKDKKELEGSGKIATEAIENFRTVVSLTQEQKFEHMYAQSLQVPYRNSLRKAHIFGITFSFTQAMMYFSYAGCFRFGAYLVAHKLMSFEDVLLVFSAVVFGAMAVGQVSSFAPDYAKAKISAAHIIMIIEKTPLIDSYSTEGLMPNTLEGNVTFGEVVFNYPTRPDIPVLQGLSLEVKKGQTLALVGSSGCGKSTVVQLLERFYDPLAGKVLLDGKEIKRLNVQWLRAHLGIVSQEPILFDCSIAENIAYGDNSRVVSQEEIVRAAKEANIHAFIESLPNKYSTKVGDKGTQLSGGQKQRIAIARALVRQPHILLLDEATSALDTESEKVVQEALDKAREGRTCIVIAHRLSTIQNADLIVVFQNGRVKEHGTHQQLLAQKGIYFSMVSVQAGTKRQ
Description: (§1) Apparent permeability (Papp) from apical to basolateral side determined in MDR1-MDCKII cells

[3] = molecular target: T1, ATP-dependent translocase ABCB1; details: dog
Description: as §1

[4] = molecular target: T1, ATP-dependent translocase ABCB1; details: dog; remark: listed apart in the source
Description: (§2) Apparent permeability (Papp) from basolateral to apical side determined in MDR1-MDCKII cells

[5] = molecular target: T2, ATP-dependent translocase ABCB1 (MDR1); assay: in vitro; details: dog; remark: listed apart in the source
Description: Ratio of apparent permeability from basolateral to apical side over apical to basolateral side determined in MDR1-MDCKII cells

[6] = molecular target: T2, ATP-dependent translocase ABCB1 (MDR1); assay: in vitro; details: dog; remark: listed apart in the source
Description: as §2

[7] = molecular target: T1, ATP-dependent translocase ABCB1; assay: TP_TRANSPORTER: ATP hydrolysis in MDR1-expressing Sf9 cells; type: functional

T1 sequence (P08183 whole entry): as above

SMILES | Ratio_ATPase activity [1] | Papp A→B ([2]; MDCK-MDR1, Papp) | Papp ([3]; MDCK-MDR1) | Papp ([4]; MDCK-MDR1) | efflux ratio ([5]; MDCK-MDR1, Ratio_Papp) | Papp B→A ([6]; MDCK-MDR1, Papp) | Papp ([3]; mdr1-mdckii) | Papp ([4]; mdr1-mdckii) | Activity [7] | Papp A→B ([2]; MDCK-MDR1) | efflux ratio ([5]; MDCK-MDR1) | Papp B→A ([6]; MDCK-MDR1)
CC(C)NCC(O)COc1cccc2ccccc12 (stereo unspecified) [PROPRANOLOL] | 1.33 | 49.6 ×10⁻⁶ cm/s | 49.6 ×10⁻⁶ cm/s | 51.4 ×10⁻⁶ cm/s | 1.04 | 51.4 ×10⁻⁶ cm/s |  |  |  |  |  | 
CC(C)CN(C[C@@H](O)[C@H](Cc1ccccc1)NC(=O)O[C@H]1CCOC1)S(=O)(=O)c1ccc(N)cc1 |  | 3.73 ×10⁻⁶ cm/s |  |  |  | 98.7 ×10⁻⁶ cm/s | 2.17 ×10⁻⁶ cm/s | 70.3 ×10⁻⁶ cm/s |  |  |  | 
CCOC(=O)C1=C(C)NC(C)=C(C(=O)OC)C1c1cccc([N+](=O)[O-])c1 (stereo unspecified) [NITRENDIPINE] | 3.22 | 60.4 ×10⁻⁶ cm/s |  |  | 0.8 | 48.3 ×10⁻⁶ cm/s |  |  | substrate [+] |  |  | 
COC(=O)Nc1nc2ccc(C(=O)c3ccccc3)cc2[nH]1 [MEBENDAZOLE] | 2 | 71.4 ×10⁻⁶ cm/s |  |  | 0.91 | 64.8 ×10⁻⁶ cm/s |  |  | substrate [+] |  |  | 
COc1cc(Cc2cnc(N)nc2N)cc(OC)c1OC [TRIMETHOPRIM] | 3.61 | 7.39 ×10⁻⁶ cm/s |  |  | 3.61 | 26.7 ×10⁻⁶ cm/s |  |  | substrate [+] |  |  | 
COc1cc2c(c(OC)c1OC)-c1ccc(OC)c(=O)cc1[C@@H](NC(C)=O)CC2 [COLCHICINE] | 1.23 |  |  |  |  |  |  |  | is not a substrate [-] | 1.79 ×10⁻⁶ cm/s | 11.3 | 20.2 ×10⁻⁶ cm/s

Second part, led by results:

Ratio_ATPase activity [1] | Papp A→B ([2]; MDCK-MDR1, Papp) | Papp ([3]; MDCK-MDR1) | Papp ([4]; MDCK-MDR1) | efflux ratio ([5]; MDCK-MDR1, Ratio_Papp) | Papp B→A ([6]; MDCK-MDR1, Papp) | Papp ([3]; mdr1-mdckii) | Papp ([4]; mdr1-mdckii) | Activity [7] | SMILES | Papp A→B ([2]; MDCK-MDR1) | efflux ratio ([5]; MDCK-MDR1) | Papp B→A ([6]; MDCK-MDR1)
1.25 | 1.13 ×10⁻⁶ cm/s |  |  | 0.82 | 0.915 ×10⁻⁶ cm/s | 1.13 ×10⁻⁶ cm/s | 0.915 ×10⁻⁶ cm/s |  | OC[C@@H](O)[C@@H](O)[C@H](O)[C@H](O)CO [MANNITOL] |  |  | 
2.22 | 1.84 ×10⁻⁶ cm/s |  |  | 31.5 | 57.8 ×10⁻⁶ cm/s |  |  | substrate [+] | CN1CCC[C@@H]1Cc1c[nH]c2ccc(CCS(=O)(=O)c3ccccc3)cc12 |  |  | 
1.21 | 1.15 ×10⁻⁶ cm/s |  |  | 3.1 | 3.56 ×10⁻⁶ cm/s |  |  | is not a substrate [-] | COc1ccc(C[C@H](N)C(=O)N[C@H]2[C@@H](O)[C@H](n3cnc4c(N(C)C)ncnc43)O[C@@H]2CO)cc1 [PUROMYCIN] |  |  | 
5.39 | 61.4 ×10⁻⁶ cm/s |  |  | 1.08 | 66.1 ×10⁻⁶ cm/s |  |  | substrate [+] | COC(=O)C1=C(C)NC(C)=C(C(=O)OCCN(C)Cc2ccccc2)C1c1cccc([N+](=O)[O-])c1 (stereo unspecified) [NICARDIPINE] |  |  | 
9.59 | 0.869 ×10⁻⁶ cm/s |  |  | 20.3 | 17.6 ×10⁻⁶ cm/s |  |  | substrate [+] | CC(C)(C)NC(=O)[C@@H]1CN(Cc2cccnc2)CCN1C[C@@H](O)C[C@@H](Cc1ccccc1)C(=O)N[C@H]1c2ccccc2C[C@H]1O.O |  |  | 
1.69 | 0.547 ×10⁻⁶ cm/s |  |  | 14.2 | 7.77 ×10⁻⁶ cm/s |  |  | is not a substrate [-] | COc1cccc2c1C(=O)c1c(O)c3c(c(O)c1C2=O)C[C@@](O)(C(C)=O)C[C@@H]3O[C@H]1C[C@H](N)[C@H](O)[C@H](C)O1 [DAUNORUBICIN] |  |  | 
2.63 | < 0.125 ×10⁻⁶ cm/s |  |  | > 108 | 13.5 ×10⁻⁶ cm/s |  |  | substrate [+] | CC(=O)O[C@H]1C(=O)[C@@]2(C)[C@H]([C@H](OC(=O)c3ccccc3)[C@]3(O)C[C@H](OC(=O)[C@H](O)[C@@H](NC(=O)c4ccccc4)c4ccccc4)C(C)=C1C3(C)C)[C@]1(OC(C)=O)CO[C@@H]1C[C@@H]2O [PACLITAXEL] |  |  | 
